{
  "source": "patent US20100305161A1",
  "about": "“COMBINATIONS OF FUNGICIDAL AZOLES AND PYRION COMPOUNDS” (priority 2007, published 2010)",
  "assay_in_all_cases": "Poison Plate Assay, MIC and synergy of combinations",
  "assay_type_in_all_cases": "cell-based",
  "key": {"[1]": {"tested_on": "Coriolus versicolor CTB863A", "settings": "Trametes versicolor, 336 h, ppm total active ingredient, growth evaluated after two weeks, 27° C., 70% relative humidity, read-out: MIC-values (minimum inhibitory concentration)", "procedure": "(§1) • Test models: Fungi: to each well of a 24-well microtiter plate, 1000 μl of a rich (Potato Dextrose Agar, PDA: 4 g potato infusion, 20 g bacto dextrose and 15 g bacto agar in 1 liter deionised water) or poor (Glucose Agar, GA: 10 g glucose, 1.5 g K2HPO4, 2 g KH2PO4, 1 g (NH4)2SO4, 0.5 g MgSO4 and 12.5 g agar in 1 liter deionised water) medium containing the appropriate combination of the test compounds in one of the concentrations of a dose series is added. The nutrient medium is inoculated with the test fungi by adding a spore/mycelium suspension (10 μl) or a small piece of agar from the margin of an actively growing colony and incubated under dark at 27° C. with 70% relative humidity. The growth of the fungi is evaluated after two weeks. • Bacteria: to each well of a 24-well microtiter plate, 1000 μL Tryptose Agar (TA, 20 g bacto tryptose agar, 5 g sodium chloride, 1 g bacto dextrose and 15 g agar in 1 liter deionised water), containing the test compounds in one of the concentrations of a dose series is added. The nutrient medium is inoculated by adding 10 μl of an actively growing liquid culture of the test bacteria in tryptose broth (without agar), and incubated under dark at 27° C. with 70% relative humidity.\n(§2) When the Synergy Index is greater than 1.0, antagonism is indicated. When the SI is equal to 1.0, additivity is indicated."}, "[2]": {"tested_on": "Chaetomium globosum ATCC6205", "settings": "ATCC6205, 336 h, ppm total active ingredient, growth evaluated after two weeks, 27° C., 70% relative humidity, read-out: MIC-values (minimum inhibitory concentration)", "procedure": "as §1, §2"}, "[3]": {"tested_on": "Ulocladium atrum IMI214699a", "settings": "Alternaria atra, 336 h, ppm total active ingredient, growth evaluated after two weeks, 27° C., 70% relative humidity, read-out: MIC-values (minimum inhibitory concentration)", "procedure": "as §1\nA. G. Nass (1957) “Some aspects of the notions additivity, synergism and antagonism in the simultaneous activity of two antibacterial agents in vitro” Arch. intern. […]"}},
  "data": [
    {"smiles": "CCCC1COC(Cn2cncn2)(c2ccc(Cl)cc2Cl)O1", "note": "(stereo not shown) [(I-m) + (II-a) 100 + 0, 1-[[2-(2,4-dichlorophenyl)-4-propyl-1,3-dioxolan-2-yl]methyl]-1H-1,2,4-triazole]", "values": [
      {"measurement": "MIC", "setting": "[1]", "value": 1.88, "unit": "µg/mL"},
      {"measurement": "MIC", "setting": "[2]", "value": 5.01, "unit": "µg/mL"},
      {"measurement": "MIC", "setting": "[3]", "value": 33.3, "unit": "µg/mL"}
    ]},
    {"smiles": "[O-][n+]1ccccc1SSc1cccc[n+]1[O-]", "note": "[(I-n) + (II-g) 0 + 100, pyrion disulfide]", "values": [
      {"measurement": "MIC", "setting": "[3]", "value": 1.88, "unit": "µg/mL"}
    ]}
  ]
}
